Results as given in publication PMC7719179, “Small molecule inhibition of Dynamin-dependent endocytosis targets multiple niche signals and impairs leukemia stem cells” (Nature Communications, 2020).
Values joined by “and” are separate entries in the source; they are usually repeats but may differ in a detail not shown here. Identical values can stand only once.

Columns and labels:
[1] = test system: pre-LSC activity of Lmo2^Tg DN3a thymocytes; assay: Transplantation of in vitro treated Lmo2^Tg DN3a thymocytes (fold expansion, engraftment); type: in vivo, mouse; conditions: thymus of recipients 6 weeks post-transplantation of Lmo2^Tg DN3a thymocytes treated in vitro (Dynole 34-2 0.2 μM, Ruxolitinib 0.2 μM, DAPT 0.1 μM); individual recipients
Protocol: Single-cell suspension of murine thymus cells were intravenously injected into sublethally irradiated (650 Rads) isogenic Ly5.1 (Cd45.1) mice. Fold expansion was calculated by dividing the absolute output number of donor-derived DN3a cells harvested at the experimental endpoint by the respective number of DN3a thymocytes injected in each recipient. Limiting dilution transplantations were performed as described, by injecting various doses (10^1 to 10^6) of thymocytes per recipient, and mice were scored positive when T-cell lineage reconstitution assessed 6 weeks after transplantation was >1%. Leukemia-propagating cell frequency was calculated by applying Poisson statistics using the ELDA: Extreme Limiting Dilution Analysis software (Walter and Eliza Hall Institute Bioinformatics, Parkville VIC, Australia)[96]. Limiting dilution transplantations were performed independently from any other transplantation assays, using thymocytes from three different Lmo2^Tg mice for each cohort. Kaplan–Meier survival and statistical analysis were performed using GraphPad Prism. 6.0 software (GraphPad Software Inc, San Diego CA, USA).

[2] = test system: pStat5, Hes1, p-Erk, p-p38, p-S6, p-Akt in Lmo2^Tg DN3a cells; assay: Growth factor-mediated signalling effectors in co-cultured Lmo2^Tg DN3a cells (flow cytometry); type: cell-based, mouse
Protocol: (§1) Phosphoflow analysis was performed as previously described. Briefly, 2 × 10^6 cells stained for surface markers were subsequently resuspended into PBS 1× + 4% v/v paraformaldehyde and incubated for 10 min at 4 °C for fixation. Fixed cells were washed twice using PBS 1×, then resuspended in pre-chilled at −20 °C Perm Buffer III (BD Pharmingen) and incubated 30 min at 4 °C for permeabilization. Cells were washed twice using PBS 1× and incubated overnight at 4 °C in PBS 1× + 2% v/v fetal calf serum (FCS) with Cell Signalling purified antibodies (Genesearch Pty Ltd, Arundel QLD, Australia) against pSTAT5 (Tyr694; #9359), phospho-p38 MAPK (Thr180/Tyr182; #4511), phospho-p44/42 (Erk1/2; #9102), phospho-S6 (Ser235/236; #4856) and phospho-Akt (Ser473; #9271) or isotype control. For intracellular HES1 detection, cells stained for surface markers were subsequently fixed and permeabilized using the BD Cytofix/Cytoperm^TM Kit and incubated overnight at 4 °C in PBS 1× + 2% v/v FCS with a purified antibody against HES1 (D6PU; #11988, Cell Signalling) or isotype control. After staining with primary antibodies for phosphoflow or intracellular detection, cells were incubated in permeabilization buffer with donkey Alexa Fluor 488-conjugated anti-rabbit secondary antibody (A-21206, lot #1910751, Molecular Probes, Invitrogen) or goat Alexa Fluor 546-conjugated anti-rabbit secondary antibody (A-11035, lot #1904467, Molecular Probes, Invitrogen) for 1 h on ice, and washed twice in PBS 1×. Fluorescence-activated cell sorting (FACS) analysis was performed using LSRII and LSR Fortessa cytometers, following the gating strategies described in Supplementary Fig. 11. Cell sorting was performed with a FACSAria or BD Influx.

[3] = test system: Hes1 in leukemic DN3a cells from primary Lmo2^Tg T-ALL; assay: Notch1 (DL1)-induced Hes1 in leukemic DN3a cells from primary Lmo2^Tg T-ALL; type: cell-based, mouse
Protocol: as §1
For in vitro NOTCH1 signalling activation assays, cells were seeded on OP9 and OP9-DL1 stromal cell lines as described in the co-culture assays section and incubated overnight with either Dynole 34-2 or Ruxolitinib or DAPT resuspended in DMSO. Harvested cells were washed twice using cold PBS 1× and incubated with 25 ng/mL Rat IgG (Sigma-Aldrich Pty Ltd, Castle Hill NSW, Australia) with a PE-conjugated antibody for detection of NOTCH1 for 1 h on ice, as described in the FACS analysis section. PE-conjugated isotype was used as negative control. Cells were washed twice, fixed and analysed for intracellular HES1 detection by flow cytometry as described in the FACS analysis section. The analysis was performed in triplicate and the MFI observed in thymocytes co-cultured on OP9 cells was reported as 100%.

[4] = test system: pStat5 in leukemic DN3a cells from primary Lmo2^Tg T-ALL; assay: IL-7-induced pStat5 in leukemic DN3a cells from primary Lmo2^Tg T-ALL; type: cell-based, mouse
Protocol: as §1
For in vitro IL-7 stimulation assays, cells were starved in serum-free DMEM at 37 °C, then incubated with either vehicle or Dynole 34-2 or Ruxolitinib (INCB018424; #S1378, Selleckchem), or DAPT (GSI-IX; #S2215, Selleckchem) resuspended in DMSO for 1 h. Thymocytes were subsequently stimulated with 25 ng/mL IL-7 at 37 °C for 20 min and washed twice using cold PBS 1×. Cells were incubated with 25 ng/mL Rat IgG (Sigma-Aldrich Pty Ltd, Castle Hill NSW, Australia) and with a PE-conjugated antibody for detection of IL-7R (CD127) for 1 h on ice, as described in the FACS analysis section. PE-conjugated isotype was used as negative control. Cells were washed twice, fixed and phosphoflow analysis performed as described in the FACS analysis section. The analysis was performed in triplicate and the mean fluorescence intensity (MFI) observed without stimulation was reported as 100%.

[5] = Supplementary Figure 2c, unstimulated and vehicle controls in the same table
[6] = leukemic DN3a cells of TALL249, Notch1 (DL1) stimulation
[7] = leukemic DN3a cells of TALL257, Notch1 (DL1) stimulation
[8] = leukemic DN3a cells of TALL273, Notch1 (DL1) stimulation
[9] = leukemic DN3a cells of TALL582, Notch1 (DL1) stimulation
[10] = leukemic DN3a cells of TALL588, Notch1 (DL1) stimulation
[11] = leukemic DN3a cells of TALL742, Notch1 (DL1) stimulation
[12] = leukemic DN3a cells of TALL249, IL-7 stimulation
[13] = leukemic DN3a cells of TALL257, IL-7 stimulation
[14] = leukemic DN3a cells of TALL273, IL-7 stimulation
[15] = leukemic DN3a cells of TALL582, IL-7 stimulation
[16] = leukemic DN3a cells of TALL588, IL-7 stimulation
[17] = leukemic DN3a cells of TALL742, IL-7 stimulation
[18] = Lmo2^Tg DN3a cells co-cultured on OP9-DL1 with cytokines, individual animals

Structure (SMILES): N#CC[C@H](C1CCCC1)n1cc(-c2ncnc3[nH]ccc23)cn1 [Ruxolitinib]
- Fold expansion DN3a cells [1]: 0.06 fold and 0.01 fold and 5.29 fold and 8.54 fold and 22.76 fold and 8.51 fold
- Hes1 (MFI) [2, 5]: 1340 MFI and 1445 MFI and 1491 MFI
- Hes1 (MFI) [3, 6]: 8215 MFI
- Hes1, FOLD over unstimulated [3, 6]: 1.09 fold
- Hes1 (MFI) [3, 7]: 8036 MFI
- Hes1, FOLD over unstimulated [3, 7]: 1.41 fold
- Hes1 (MFI) [3, 8]: 8741 MFI
- Hes1, FOLD over unstimulated [3, 8]: 1.04 fold
- Hes1 (MFI) [3, 9]: 6452 MFI
- Hes1, FOLD over unstimulated [3, 9]: 1.20 fold
- Hes1 (MFI) [3, 10]: 8104 MFI
- Hes1, FOLD over unstimulated [3, 10]: 1.48 fold
- Hes1 (MFI) [3, 11]: 10321 MFI
- Hes1, FOLD over unstimulated [3, 11]: 1.31 fold
- pStat5 (MFI) [4, 12]: 2437 MFI
- pStat5, FOLD over unstimulated [4, 12]: 0.61 fold
- pStat5 (MFI) [4, 13]: 2111 MFI
- pStat5, FOLD over unstimulated [4, 13]: 1.36 fold
- pStat5 (MFI) [4, 14]: 2300 MFI
- pStat5, FOLD over unstimulated [4, 14]: 1.02 fold
- pStat5 (MFI) [4, 15]: 33429 MFI
- pStat5, FOLD over unstimulated [4, 15]: 0.88 fold
- pStat5 (MFI) [4, 16]: 3772 MFI
- pStat5, FOLD over unstimulated [4, 16]: 1.47 fold
- pStat5 (MFI) [4, 17]: 5460 MFI
- pStat5, FOLD over unstimulated [4, 17]: 0.96 fold

Structure (SMILES): CCCCCCCCNC(=O)C(C#N)=Cc1cn(CCCN(C)C)c2ccccc12 [Dynole 34-2, 2-Cyano-N-octyl-3-(1-(3-dimethylaminopropyl)-1H-indol-3-yl)-acrylamide]
- Fold expansion DN3a cells [1]: 0.05 fold and 0.01 fold and 3.00 fold and 6.41 fold and 5.91 fold and 0.19 fold and 17.69 fold
- Hes1 (MFI) [2, 18]: 5911 MFI and 6176 MFI and 5994 MFI and 6141 MFI
- p-Akt (MFI) [2, 18]: 1455 MFI and 2044 MFI and 1472 MFI and 1916 MFI
- p-Erk (MFI) [2, 18]: 2822 MFI and 3661 MFI and 3448 MFI and 2830 MFI
- p-S6 (MFI) [2, 18]: 4904 MFI and 4987 MFI and 5062 MFI and 5235 MFI
- p-p38 (MFI) [2, 18]: 4351 MFI and 3539 MFI and 4397 MFI and 3757 MFI
- pStat5 (MFI) [2, 18]: 2745 MFI and 2767 MFI and 2938 MFI and 3210 MFI
- Hes1 (MFI) [2, 5]: 1218 MFI and 1199 MFI and 1165 MFI
- Hes1 (MFI) [3, 6]: 7095 MFI
- Hes1, FOLD over unstimulated [3, 6]: 0.94 fold
- Hes1 (MFI) [3, 7]: 5988 MFI
- Hes1, FOLD over unstimulated [3, 7]: 1.05 fold
- Hes1 (MFI) [3, 8]: 7679 MFI
- Hes1, FOLD over unstimulated [3, 8]: 0.92 fold
- Hes1 (MFI) [3, 9]: 5082 MFI
- Hes1, FOLD over unstimulated [3, 9]: 0.94 fold
- Hes1 (MFI) [3, 10]: 7974 MFI
- Hes1, FOLD over unstimulated [3, 10]: 1.46 fold
- Hes1 (MFI) [3, 11]: 7594 MFI
- Hes1, FOLD over unstimulated [3, 11]: 0.96 fold
- pStat5 (MFI) [4, 12]: 3097 MFI
- pStat5, FOLD over unstimulated [4, 12]: 0.78 fold
- pStat5 (MFI) [4, 13]: 1676 MFI
- pStat5, FOLD over unstimulated [4, 13]: 1.08 fold
- pStat5 (MFI) [4, 14]: 2251 MFI
- pStat5, FOLD over unstimulated [4, 14]: 1.00 fold
- pStat5 (MFI) [4, 15]: 15189 MFI
- pStat5, FOLD over unstimulated [4, 15]: 0.40 fold
- pStat5 (MFI) [4, 16]: 2662 MFI
- pStat5, FOLD over unstimulated [4, 16]: 1.03 fold
- pStat5 (MFI) [4, 17]: 5864 MFI
- pStat5, FOLD over unstimulated [4, 17]: 1.03 fold

Structure (SMILES): C[C@H](NC(=O)Cc1cc(F)cc(F)c1)C(=O)N[C@H](C(=O)OC(C)(C)C)c1ccccc1 [DAPT, N-[N-(3,5-Difluorophenacetyl)-L-alanyl]-S-phenylglycine t-butyl ester]
- Fold expansion DN3a cells [1]: 0.05 fold and 0.01 fold and 0.07 fold and 2.41 fold and 0.20 fold and 11.64 fold
- Hes1 (MFI) [2, 5]: 1314 MFI and 1222 MFI and 1307 MFI
- Hes1 (MFI) [3, 6]: 6973 MFI
- Hes1, FOLD over unstimulated [3, 6]: 0.92 fold
- Hes1 (MFI) [3, 7]: 4801 MFI
- Hes1, FOLD over unstimulated [3, 7]: 0.84 fold
- Hes1 (MFI) [3, 8]: 7737 MFI
- Hes1, FOLD over unstimulated [3, 8]: 0.92 fold
- Hes1 (MFI) [3, 9]: 5294 MFI
- Hes1, FOLD over unstimulated [3, 9]: 0.98 fold
- Hes1 (MFI) [3, 10]: 6134 MFI
- Hes1, FOLD over unstimulated [3, 10]: 1.12 fold
- Hes1 (MFI) [3, 11]: 7313 MFI
- Hes1, FOLD over unstimulated [3, 11]: 0.93 fold
- pStat5 (MFI) [4, 12]: 15113 MFI
- pStat5, FOLD over unstimulated [4, 12]: 3.80 fold
- pStat5 (MFI) [4, 13]: 2628 MFI
- pStat5, FOLD over unstimulated [4, 13]: 1.69 fold
- pStat5 (MFI) [4, 14]: 2744 MFI
- pStat5, FOLD over unstimulated [4, 14]: 1.22 fold
- pStat5 (MFI) [4, 15]: 34040 MFI
- pStat5, FOLD over unstimulated [4, 15]: 0.89 fold
- pStat5 (MFI) [4, 16]: 3980 MFI
- pStat5, FOLD over unstimulated [4, 16]: 1.55 fold
- pStat5 (MFI) [4, 17]: 7661 MFI
- pStat5, FOLD over unstimulated [4, 17]: 1.35 fold
